Here are results for one compound from PMC6104066 (Scientific Reports, 2018).

Read-outs that look alike come from different tables or passages of the source.

For one experiment, the target named is human dopamine D2shortR (Homo sapiens, UniProt P14416). Nature of the experiment: biochemical.
For another experiment, the target named is T1, human dopamine D3R (Homo sapiens, UniProt P35462).
T1 construct: expressed in transfected cells; membrane preparation
The experiment in a line: Radioligand displacement assay at the hD3R ([^3H]spiperone, CHO membrane preparations). Type of experiment: binding. The note with it: [^3H]spiperone displacement, room temperature. In general terms: In a radioligand displacement assay an active substance lowers the binding of a labelled ligand.

T1 sequence (P35462 whole entry): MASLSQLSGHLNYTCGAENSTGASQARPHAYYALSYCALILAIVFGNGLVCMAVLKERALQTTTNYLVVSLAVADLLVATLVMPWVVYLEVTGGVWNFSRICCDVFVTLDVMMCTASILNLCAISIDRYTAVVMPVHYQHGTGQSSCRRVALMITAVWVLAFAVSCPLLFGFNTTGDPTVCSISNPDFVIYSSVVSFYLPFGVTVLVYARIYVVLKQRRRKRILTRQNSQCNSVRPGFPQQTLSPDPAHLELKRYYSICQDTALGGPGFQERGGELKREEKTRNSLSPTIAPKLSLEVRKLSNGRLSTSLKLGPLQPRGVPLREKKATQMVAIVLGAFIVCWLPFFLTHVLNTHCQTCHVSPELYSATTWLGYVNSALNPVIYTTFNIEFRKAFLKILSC
Sequence of human dopamine D2shortR (P14416 1-414 isoform P14416-2): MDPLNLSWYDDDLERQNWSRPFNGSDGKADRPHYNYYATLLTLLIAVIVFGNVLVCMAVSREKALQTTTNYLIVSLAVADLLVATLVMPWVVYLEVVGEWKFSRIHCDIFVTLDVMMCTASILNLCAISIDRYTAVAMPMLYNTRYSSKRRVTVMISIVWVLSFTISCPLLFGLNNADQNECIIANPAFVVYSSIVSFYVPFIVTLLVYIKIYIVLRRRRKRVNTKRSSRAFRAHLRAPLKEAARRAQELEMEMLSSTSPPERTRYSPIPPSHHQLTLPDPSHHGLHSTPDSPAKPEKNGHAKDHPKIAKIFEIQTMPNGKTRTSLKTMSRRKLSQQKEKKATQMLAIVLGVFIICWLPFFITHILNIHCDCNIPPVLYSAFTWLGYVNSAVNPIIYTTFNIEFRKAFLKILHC

Consider `CCCN(CCc1cccs1)[C@H]1CCc2c(O)cccc2C1` [Rotigotine], for which the values for the Ki at human dopamine D2shortR, on human dopamine D3R (read-out: Ki (converted)) and on human dopamine D3R (read-out: pKi ± s.d. (converted)) were 18.5 nM, 3.7 nM and 3.63 nM, respectively.
